The results in this text go back to a melting point compilation (Tetko et al.; mined from patent text by program, amines drawn as free bases though some values may be those of a salt).

For orientation: melting point means the temperature of the solid-liquid transition.

Turning to `Cc1c(C#N)sc2nc(-c3ccncc3)nc(N(C)CCO)c12`, the melting point lay within 194 to 195 °C.
Regarding `Cc1cc2cc(CN3CCCC3)cnc2cc1NC(=O)c1ccc(-c2ccc(F)c(F)c2)cc1`, the melting point lay within 220 to 223 °C.
`CCCCOc1ccc(S(=O)(=O)C2(C(=O)O)CCN(CCOc3ccccc3)CC2)cc1` showed a melting point of 204 °C.
The value for `CCCC(O)c1cc(C(=O)OC)c(NC(C)=O)cc1C(F)(F)F` (centres undefined) was 97 to 101 °C; that for `Cc1ccc(S(=O)(=O)OCC2CCN(C(c3ccccc3)(c3ccccc3)c3ccccc3)CC2)cc1` was 192 °C.
To `Cc1ccc2c(Cl)cc(C(=O)NCc3ccc(Cl)cc3)c(O)c2n1` belongs 128 to 130 °C; to `CC(C)CC1(C(CCN2C(=O)c3c(F)c(F)c(F)c(F)c3C2=O)C(=O)NO)CCN(CCc2ccccc2)C1=O` (centres undefined), 172 to 174 °C.
Regarding `CC(C)OC(=O)NC1=NCC(c2cccc(F)c2)N1C` (centres undefined), the melting point was 103 to 104 °C.
As to `CCOC(=O)c1sc2[nH]c(=O)c(=O)[nH]c2c1CC`, the melting point is more than 300 °C.
In turn, `Cc1ccc(S(=O)(=O)Nc2cc(C(C)(C)C)c(O)c(C(C)(C)C)c2)cc1` had a melting point of 160 to 180 °C.
The compound `CC(C)CSc1c(-c2ccc(S(C)(=O)=O)cc2)cnn(CC(F)(F)F)c1=O` returned a melting point of 135 to 138 °C.
The compound `CCN(c1ccc(Cl)cc1[N+](=O)[O-])S(=O)(=O)c1ccc(C#N)cc1` yielded a melting point of 146 to 148 °C.
`CN1CCN(Cc2ccc(NC(=O)c3nsc4cc(Oc5ccnc(N)n5)ccc34)cc2C(F)(F)F)CC1` came in with a melting point of 215 to 217 °C.
`O=C(/C=C/c1ccc2c(c1)OCCO2)CC(=O)/C=C/c1ccc2c(c1)OCCO2` returned a melting point of 184 to 187 °C.
In the case of `COC(=O)c1cc(-c2ccc(F)c(C)c2)nn(CC(C)C)c1=O`, the melting point lay within 71.4 to 73.8 °C.
To `CCOC(=O)c1c(O)nsc1C` belongs 69 °C.
`COc1ccc(C(=O)Nc2ccccc2)cc1Nc1ccccc1`: the melting point is 194 to 195 °C.
In the case of `COC(=O)c1nc2cc(Cl)cc(C)c2c(O)c1C(=O)OC`, the melting point lay within 117 to 119 °C.
Turning to `CCCc1c(OCCCOc2ccc3c(c2)CCC(CC(=O)O)C3=O)ccc(C(C)=O)c1O` (centres undefined), the melting point is 123 to 125 °C.
To `CCOC(=O)NC(=NCCCc1c[nH]cn1)NCCSCc1ccccn1` belongs 60 to 61 °C; to `CCN(CC)C(=O)c1ccc(-c2ccc(-c3ccccc3)c(-c3ccc4c(c3)C(C)(C)CCC4(C)C)c2)cc1`, 113 °C.
As for `CC(=O)N(C(C)=O)c1ccccc1Cn1[nH]c2ccccc2c1=O`, the melting point is 114 to 115 °C.
`Cc1cccc2c(Cl)cc(C(F)(Cl)Cl)nc12` displayed a melting point of 90 to 94 °C.
For the compound `CNC(C)CN1CCc2c(c(=O)oc3cc(C)c(NC(C)=O)cc23)C1` (centres undefined), the melting point lay in the range of 187 to 188 °C.
In turn, `O=C1CC2(CC(=O)O1)c1ccccc1Oc1ccccc12` came in with a melting point of 188 to 190 °C.
In the case of `COc1cccc(N(C(=O)c2ccc(Br)s2)C2CC2)c1`, the melting point stood at 60 °C.
With `Nn1cccc1C(=O)C(F)(F)F`, the melting point was in the range of 33 to 35 °C.
To `NS(=O)(=O)c1ccc(C2=NC3(O)c4ccc(Cl)cc4CC3S2)cc1` (centres undefined) belongs 160 °C.
Compound `Nc1ccc2c(c1)CCN(Cc1ncn[nH]1)C2` returned a melting point of 191 to 193 °C.
`O=C(Cl)c1ccccc1Nc1cccc([N+](=O)[O-])c1` came in with a melting point of 141 to 145 °C.
`CCc1c(N)c(C(N)=O)nn1C1CN(C(C)C)C1` showed a melting point of 195 to 200 °C.
Take `CCCCc1oc2ccccc2c1C(=O)N(C)Cc1ccc(-c2ccc(OCC(=O)O)c(Br)c2)cc1`: the melting point was 72 to 78 °C.
On to `O=c1c2ccc(Cl)cc2[nH]c2c(O)nn(-c3ccc(Cl)cc3Cl)c(=O)c12`, for which the melting point lay within 360 to 361 °C.
Compound `CCOC(=O)c1ccc(NC(=O)C=Cc2ccc(Cl)cc2)cc1` came in with a melting point of 203 to 204 °C.
`CCC(O)CN1CCC(c2noc3cc(F)ccc23)CC1` (centres undefined): the melting point is 87 to 88 °C.
Turning to `Cc1nnsc1C(=O)Nc1ccc(-n2nc(C(F)(F)F)cc2C2CC2)c(F)c1`, the melting point lay within 105 to 112 °C.
`CCOC(=O)C1=C(C)NC(c2cnc(Cl)s2)=NC1c1ccc(F)cc1Cl` (centres undefined) yielded a melting point of 159 to 162 °C.
Take `CCc1ccc(C(=O)Nc2ccccc2O)cc1`: the melting point lay in the range of 103 to 105 °C.
For `COc1ccc(C(Cc2ccc(NC(=O)OC(C)(C)C)cc2)c2ccccc2)cc1OC1CCCC1` (centres undefined), the melting point was 123 °C.
The value for `CC(C)Cn1c(=O)n(C)c(=O)c2c(Br)c(C(O)c3cccnc3)sc21` (centres undefined) was 132 °C.
The value for `CC(C)Cc1sc2c(c1C(=O)c1ccccc1)CCC2C(=O)O` (centres undefined) was 106 to 108 °C; that for `CCOC(=O)C(Cc1cc(OC)ccc1OC)C(C)=O` (centres undefined) was 68 to 69 °C.
As to `COc1nc2cc(Cl)c(Cl)c(-n3c(CO)nnc3-c3cccnc3)c2nc1OC`, the melting point was in the range of 209 to 210 °C.
In the case of `C=Cn1ccnc1C(O)(c1ccc(C(C)(C)C)cc1)c1ccc(C(C)(C)C)cc1`, the melting point lay within 169 to 170 °C.
To `CCOC(=O)C1=C(COCC2(C)CO2)NC(C)=C(C(=O)OC)C1c1cccc(Cl)c1Cl` (centres undefined) belongs 107 to 112 °C; to `CC(C)(C)c1ccc(N(CCCOc2ccc(C(=O)O)cc2)C(=O)c2ccc3c(c2)OCO3)cc1`, 199 to 203 °C; to `CS(=O)(=O)Nc1cc2occ(CO)c(=O)c2cc1Oc1ccccc1`, 165 to 166 °C.
Take `O=Cc1ccc(OCCN2C(=O)c3ccccc3C2=O)cc1`: the melting point amounted to 138 °C.
For the compound `CS(=O)(=O)c1ccc(-n2nc(C(F)(F)F)cc2-c2ccc(-c3ncco3)cc2)cc1`, the melting point lay in the range of 190 to 192 °C.
The compound `CCCC1=C(C(=O)OCC)C(c2cccc(Cl)c2C)c2c[nH]nc2N1` (centres undefined) showed a melting point of 185 °C.
`Brc1ccc(OCCc2c[nH]cn2)cc1` displayed a melting point of 162 to 165 °C.
To `C=C(C)[C@H]1CC[C@@](C)(O)[C@H](NC23CC4CC(CC(C4)C2)C3)C1` belongs 94 to 96 °C; to `NS(=O)(=O)c1cc2c(s1)S(=O)(=O)CC=C2`, 210 to 212 °C; to `C[C@@H](O[Si](C)(C)C(C)(C)C)[C@H]1C(=O)N[C@@H]1[C@@H](C)C(=O)C(C)(C)O[Si](C)(C)C`, 162 °C.
Take `CCN(CC)c1nc(N)c(SC)c(Cl)n1`: the melting point was 68 °C.
`CCOC(=O)c1cnn(-c2ccc(Cl)cc2)c1` yielded a melting point of 127 to 128 °C.
The value for `Cc1cccc2cc3c(=O)n(CCCN4CCCC4=O)cc(C(=O)NCCN(C)C)c3nc12` was 170 to 171 °C; that for `COc1c(F)c(F)cc2c(=O)c(C(=O)O)cn(C3COC3)c12` was 178 to 179 °C.
On to `O=C(Nc1ccc2ccc(-c3ccccc3)nc2n1)c1cccc(Br)c1`, for which the melting point is 175 °C.
For the compound `CN1C(=O)COc2ccc(C3=NNC(=O)CC3)cc21`, the melting point fell in the range of 247 to 248 °C.
Consider `CC(C)CNS(=O)(=O)c1ccc(N)c(C(=O)N2CCN(C)CC2)c1`, for which the melting point is 162 to 163 °C.
`CCOC(=O)c1cn(C)cc(-c2cccc(C(F)(F)F)c2)c1=O`: the melting point was in the range of 151 to 152 °C.
As to `O=C1CN=C(C2CCCCC2)c2cc(Cl)ccc2N1`, the melting point was 210 °C.
`Nc1ccc2ncc(Br)cc2n1`: the melting point fell in the range of 168 to 169 °C.
Regarding `N#Cc1c(O)nc2ccc(Cl)cc2c1O`, the melting point is 275 to 277 °C.
For `Cc1cc(NC(=O)CN(CC(=O)O)CC(=O)O)ccc1Br`, the melting point lay in the range of 206 to 209 °C.
To `CN1CCC(O)(C2SCCCS2)CC1` belongs 115 to 120 °C.
As to `CC(=O)NCc1cccc(Nc2nccc(-c3sc(C)nc3C)n2)c1`, the melting point fell in the range of 206 to 207 °C.
`COc1ccc(C(=O)O)cc1OC(=O)c1ccccc1` returned a melting point of 180 to 183 °C.
For `O=C(O)C(Cc1ccccc1)Nc1cc(-c2ccc(Cc3ccccc3)cc2)ncn1` (centres undefined), the melting point was 116 to 118 °C.
Take `CCON1CCC(C#N)(NC(=O)Cc2c(C)cc(C)cc2C)CC1`: the melting point lay in the range of 194 to 195 °C.
For `CC(C)Oc1cc(COc2cc(CCC(=O)O)n(-c3ccccc3)n2)cc(COc2ncc(C(F)(F)F)cc2Cl)c1`, the melting point lay within 140 to 142 °C.
Take `COc1ccc(C=C2SC(=S)N(CC(=O)O)C2=O)cc1-c1cc2c(cc1C)C(C)(C)CCC2(C)C`: the melting point fell in the range of 242 to 244 °C.
The compound `Cc1ccc(NC(=O)c2cc(Cl)ccc2NCC2CCN(C3CCS(=O)(=O)CC3)CC2)nc1` gave a melting point of 154 to 156 °C.
In turn, `COC(=O)CCC(=O)c1cc(C(=O)N(C)C)cs1` had a melting point of 98 to 100 °C.
In the case of `Nc1nc(NCCN2CCOCC2)nc2nc(-c3ccco3)nn12`, the melting point fell in the range of 242 to 244 °C.
For `CNc1c(C(=O)OC)cccc1[N+](=O)[O-]`, the melting point lay within 138 to 140 °C.
`Nc1cc(-n2cncn2)ccc1[N+](=O)[O-]`: the melting point lay within 259 to 261 °C.
Compound `Cn1ccc2cc(N3Cc4ccc(Br)cc4C3=O)ccc21` yielded a melting point of 235 to 237 °C.
On to `CCOC(=O)C(=O)NNC(=O)c1cc(C)cc(C)c1`, for which the melting point was 159 °C.
Compound `CN(C(=O)C(C#N)C(=O)c1nn(-c2ccccc2)c2c1COc1ccccc1-2)c1ccccc1` (centres undefined) returned a melting point of 183 to 184 °C.
As to `COc1ccc(C2NC(C(=O)O)CS2)cc1` (centres undefined), the melting point lay within 150 to 151 °C.
On to `CCCCCCCCCCCCCCCCCCOc1cc(OCC(=O)OC)cc(C(=O)N(CC(=O)OC)CC(=O)OC)c1`, for which the melting point fell in the range of 53 to 55 °C.
Take `O=C(O)C(CC1CCCC1)c1ccc(C#Cc2ccccn2)cc1` (centres undefined): the melting point lay within 143 to 147 °C.
In turn, `CCCCCCS(=O)(=O)NC(=O)CCc1cc(OC(C)C)nn1Cc1ccc(Cl)cc1Cl` gave a melting point of 103 to 106 °C.
Turning to `O=C(CCCCOc1ccc(O)cc1)C(F)(F)F`, the melting point lay in the range of 63 to 64 °C.
To `O=Cc1ccn(C2=CC3=C(CC2)CCc2[nH]c(=O)c(=O)n(CC(=O)O)c23)c1` belongs more than 250 °C.
In turn, `CS(=O)(=O)N1CCN([C@](O)(CNC(=O)c2ccc(OCC#CCO)cc2)C(N)=O)CC1` came in with a melting point of 162 °C.
Compound `N#Cc1ccc(NC(=O)CCCC(=O)O)cc1` showed a melting point of 200 to 201 °C.
